# Positions count from the first letter of the chain named.
# Assays:
# [1] = biological target: T1, KcsA-Kv1.1 T-only chimera (Streptomyces lividans, UniProt P0A334, R52A/G53E/A54E/P55A/G56E/A57S/Q58H/L59F/I60S/T61S/Y62I/R64D); test: Phage ELISA-binding assay, KcsA-Kv1.1 T-only; set-up: species or system human Kv1.1 turret in Streptomyces lividans KcsA; settings: toxin displayed on M13 phage; Fig. 8C
# T1 sequence (P0A334 1-160 R52A/G53E/A54E/P55A/G56E/A57S/Q58H/L59F/I60S/T61S/Y62I/R64D): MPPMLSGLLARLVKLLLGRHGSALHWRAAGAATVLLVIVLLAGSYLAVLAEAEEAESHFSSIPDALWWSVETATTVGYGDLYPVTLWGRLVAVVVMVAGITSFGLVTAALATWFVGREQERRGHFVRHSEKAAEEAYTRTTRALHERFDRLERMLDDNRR
# Protocol: (§1) Phage display test solutions were prepared according to routine phage display protocols ([62]). Phosphorylated and annealed oligonucleotides encoding the peptide construct were ligated into linearized pAS62 phagemid vector (https://patents.google.com/patent/WO2022144560A1/en) at a vector/insert ratio of 1:3. The final phagemid construct harbored a signal sequence followed by the peptide of interest, a linker sequence ([…]), and the C-terminal part of the P3 coat protein (amino acids: 216-424 of NP_510891.1). Chemically competent XL1-Blue E. coli cells (2022249, Agilent) were transformed with the ligation product and then streaked onto ampicillin (100 μg/ml) containing LB/Amp plates and incubated for 16 h at 37 °C. A few clones were sequenced, and a single colony with confirmed target sequence was inoculated into 3 ml 2 YT medium supplemented with 100 μg/ml ampicillin and incubated at 37 °C until the culture reached midlog phase. The culture was infected with M13KO7 helper phage (N0315S, New England Biolabs) (phage/cell ratio 10:1) and was incubated for 30 min at 37 °C. The 3 ml culture was transferred into 200 ml 2YT medium, supplemented with 100 μg/ml ampicillin and 25 μg/ml kanamycin, and incubated overnight at 37 °C. The overnight cell culture (200 ml) was pelleted by centrifugation at 8000g for 10 min in 400 ml centrifuge tubes at 4 °C. […] The particle concentrations of phage solutions were determined using a NanoDrop One C (Thermo Fisher Scientific) spectrophotometer. The phage particle concentration was assessed according to the formula: (A268–A320) × 5 × 10^12 particles/ml ([62]). […]
# (§2) Phage stock solutions were diluted to working concentration with phage resuspension buffer supplemented with 2 mM DDM. […] Following blocking, the wells were washed 4× with washing buffer (300 μl TBS-Tween, 0.1% v/v) using a Wellwash Versa microplate washer (Thermo Fisher Scientific); then 50 μl phage solution (in TBS-BSA-Tween, 0.1% v/v, 2 mM DDM) at determined phage concentration was added to the wells and incubated for 1 h at room temperature on a horizontal shaker. […]
# KcsA-Kv1.3 T+F chimera = biological target: T2, KcsA-Kv1.3 T+F chimera (Streptomyces lividans, UniProt P0A334, A54D/A57S/G53D/G56T/I60S/L59F/L81M/Q58G/R52A/R64D/T61S/Y62I/Y82H); test: Phage ELISA-binding assay, KcsA-Kv1.3 T+F; set-up: species or system human Kv1.3 turret and filter in Streptomyces lividans KcsA; settings: toxin displayed on M13 phage, Fig. 6D
# T2 construct: made in house; host or cells: E. coli C41(DE3) (pET45b)
# T2 sequence (P0A334 1-160 R52A/G53D/A54D/G56T/A57S/Q58G/L59F/I60S/T61S/Y62I/R64D/L81M/Y82H): T1 sequence (P0A334 1-160 R52A/G53E/A54E/P55A/G56E/A57S/Q58H/L59F/I60S/T61S/Y62I/R64D) with E53D, E54D, A55P, E56T, H58G, L81M, Y82H
# Protocol: as §1, §2
# human Kv1.2 = human Kv1.2 channel blocking, patch-clamp; read-out: IC50, Kv1.x blocking (Kv1.2); cited from earlier work
# Protocol: Elution was done at 1 ml/min flow rate. Eluted peak fractions (1 ml) were analyzed by SDS-PAGE, then pooled and concentrated. The concentration of the purified protein was determined by measuring the UV absorbance at 280 nm using the protein extinction coefficient calculator in the ProtParam tool of Ex ...
structure (smiles),measurement,setting,value
"CC[C@H](C)[C@H](NC(=O)[C@H](CCC(=O)O)NC(=O)[C@@H](NC(=O)CN)C(C)C)C(=O)N[C@@H](CC(N)=O)C(=O)N[C@H](C(=O)N[C@@H](CCCCN)C(=O)N[C@H]1CSSC[C@@H]2NC(=O)[C@H](CCCCN)NC(=O)CNC(=O)[C@H](Cc3ccccc3)NC(=O)[C@H](CCCNC(=N)N)NC(=O)[C@H](CCSC)NC(=O)CNC(=O)[C@H](C)NC(=O)[C@H](CC(=O)O)NC(=O)[C@H](CCCCN)NC(=O)[C@@H]3CSSC[C@@H](C(=O)N[C@H](C(=O)N4CCC[C@H]4C(=O)N[C@@H](CCCCN)C(=O)O)[C@@H](C)O)NC(=O)[C@H](Cc4c[nH]cn4)NC(=O)[C@H](CSSC[C@H](NC(=O)[C@H](CCC(N)=O)NC(=O)[C@@H]4CCCN4C(=O)[C@H](CO)NC(=O)CNC(=O)[C@H](CO)NC1=O)C(=O)N[C@@H](CC(C)C)C(=O)N[C@@H](CCCCN)C(=O)N1CCC[C@H]1C(=O)N3)NC(=O)[C@H](CCCCN)NC(=O)[C@H](CCCNC(=N)N)NC(=O)[C@H](CC(N)=O)NC(=O)[C@H](CCSC)NC2=O)C(C)C [KTX1, Kaliotoxin-1]","phage binding to KcsA-Kv1.1 T-only, in words",[1],ShK > KTX1
same,rank order of phage binding to KcsA-Kv1.3 T+F,KcsA-Kv1.3 T+F chimera,Vm24 > HgTx1 > KTX1
same,IC50,human Kv1.2,> 1000 nM

# — paper PMC11002876, “KcsA-Kv1.x chimeras with complete ligand-binding sites provide improved predictivity for screening selective Kv1.x blockers” (The Journal of Biological Chemistry, 2024)
